{"source": "paper PMC6440464", "about": "(PeerJ, 2019)", "key": {"[1]": {"parameters": "method as in Yoshino et al., 2011", "conditions": "ref Yoshino et al., 2011; cited from earlier work"}, "[2]": {"test": "Pharmacokinetics study after separate oral administration in rats (HPLC-MS of plasma)", "type": "in vivo, Sprague-Dawley rats", "conditions": "for Plasma concentrations: individual rats NO. 1-5; for AUC(0-t) / Cmax / MRT(0-t) / Tmax / t1/2z / CLz/F: labelled substance = analyte, individual rats No1-No5", "method": "A total of 15 SPF Sprague-Dawley rats (SD, male, 190–210 g) were provided by Sino-British Sippr/BK Lab Animal Company Ltd. (Shanghai, China). The rats were kept in standard conditions (22–26 °C; 40–60% relative humidity; 12 h light/dark cycle). Throughout the rearing period, the animals had access to food and water ad libitum. Animal experiments were conducted in accordance with the standard ethical guidelines of the Laboratory Animal Management Committee of Jiangsu Province (SYXK (SU) 2016-0011).\nFollowing 1 week of adaptation, the rats were fasted for about 12 h before dosing, with free access to water. […] After administration of the first dose, blood samples were taken from the retro-orbital vein at 0, 5, 15, 30, 60, 90, 120, 180, 240, 360, 480, and 1,440 min and collected in heparinized tubes. The samples were centrifuged at 3,500 rpm for 10 min at 4 °C and the plasma was stored at −80 °C until analysis.\nAn Agilent 1,200 series HPLC system (Agilent Technologies, Waldbronn, Germany) equipped with a quaternary pump on-line degasser, auto-sampler and column oven, and an SL G1946D quadruple mass spectrometer (Agilent Technologies, Santa Clara, CA, USA) equipped with an electrospray ionization (ESI) source, were used for separation and detection. Data were acquired and analyzed using Agilent ChemStation Software Version A.01.00 (Agilent Technologies, Santa Clara, CA, USA).\nThe separation was carried out with an Amethyst C18-H column (150 × 4.6 mm, 5 μm, Sepax Technologies, Newark, DE, USA) with a guard column SB-C18 (10 × 4.6 mm, 5 μm, Phenomenex Technologies, Torrance, USA) at a constant temperature of 25 °C.\nThe mass spectra were acquired using ESI interfaced to a single quadrupole mass spectrometer. The ionization conditions were as follows: drying gas (N2) flow rate of 11 L/min, drying gas temperature of 350 °C, nebulizing gas (N2) pressure of 35 psi, capillary voltage of 3,500 V, quad temperature of 100 °C, and fragment voltage of 110 V. A series of m/z were monitored using a timed program according to the retention times and characteristic ions for the corresponding HPLC-MS peak obtained by scanning from m/z 100–1,000 in the standard sample.\nBriefly, an aliquot of plasma sample (100 μL) was spiked with 5% formic acid (10 μL) in centrifuge tube. Subsequently, hydrochloric acid (2 mol/L, 10 μL) and IS solution (960.00 ng/mL, 20 μL) were added. Then ethyl acetate/n-butyl alcohol (1:1 v/v; 1,000 μL) was used to extract the components. The samples were then homogenized by vortex mixing and centrifuged for 10 min at 14,000 rpm. After centrifugation, 800 μL of supernatant was transferred to another centrifuge tube and the sample was evaporated to dryness. The residues were dissolved in 100 μL of methanol and centrifuged for 10 min at 12,000 rpm. 50 μL of the supernatant was transferred to the vial and an aliquot of 5 μL was injected into the HPLC-MS system for analysis.\nDAS 2.0 (Chinese Pharmacological Association, Shanghai, China) was used to calculate the pharmacokinetic parameters using the non-compartment model, including the area under curve (AUC), mean residence time (MRT), half-life ( t1/2z), clearance rate (CL), maximum plasma concentration (Cmax), and time (Tmax). All results are expressed as mean ± standard deviation (SD). One way analysis of variance followed by […] was used for comparison of different groups using Graph pad prism 5 software. A p-value of <0.05 was considered statistically significant."}, "[3]": {"conditions": "IQ group (oral IQ 50 mg/kg), rat plasma"}, "[4]": {"conditions": "QG group (oral QG 50 mg/kg), rat plasma"}, "[5]": {"conditions": "Qr group (oral Qr 50 mg/kg), rat plasma"}}, "note": "Several values for one entry are separate records, joined by “and”; a condition that tells them apart may be missing. Equal values may be shown once.", "data": [{"smiles": "O=C(O)[C@H]1O[C@@H](Oc2c(-c3ccc(O)c(O)c3)oc3cc(O)cc(O)c3c2=O)[C@H](O)[C@@H](O)[C@@H]1O", "note": "[QG, Quercetin-3-O-β-D-glucuronide]", "values": [{"measurement": "Toxicity compared with its aglycone", "setting": "[1]", "result": "much less toxic"}, {"measurement": "Plasma concentrations", "setting": "[2]; IQ group (oral IQ 50 mg/kg), 5 min", "result": "0.7646 µg/mL and 1.0569 µg/mL"}, {"measurement": "Plasma concentrations", "setting": "[2]; IQ group (oral IQ 50 mg/kg), 120 min", "result": "0.6158 µg/mL and 0.5082 µg/mL and 0.7807 µg/mL and 0.6334 µg/mL"}, {"measurement": "Plasma concentrations", "setting": "[2]; IQ group (oral IQ 50 mg/kg), 180 min", "result": "0.8736 µg/mL and 0.5334 µg/mL and 0.3826 µg/mL and 0.3965 µg/mL and 0.7922 µg/mL"}, {"measurement": "Plasma concentrations", "setting": "[2]; IQ group (oral IQ 50 mg/kg), 240 min", "result": "0.2228 µg/mL and 0.5709 µg/mL and 0.5714 µg/mL and 0.4349 µg/mL and 0.8190 µg/mL"}, {"measurement": "Plasma concentrations", "setting": "[2]; IQ group (oral IQ 50 mg/kg), 360 min", "result": "0.1194 µg/mL and 0.8107 µg/mL and 0.4137 µg/mL and 0.6925 µg/mL and 0.8505 µg/mL"}, {"measurement": "Plasma concentrations", "setting": "[2]; IQ group (oral IQ 50 mg/kg), 480 min", "result": "0.4225 µg/mL and 0.4165 µg/mL and 0.1673 µg/mL and 0.2461 µg/mL and 0.7377 µg/mL"}, {"measurement": "Plasma concentrations", "setting": "[2]; IQ group (oral IQ 50 mg/kg), 1440 min", "result": "0.0935 µg/mL and 0.0847 µg/mL and 0.0809 µg/mL and 0.0651 µg/mL and 0.3494 µg/mL"}, {"measurement": "AUC(0-t)", "setting": "[2]; [3]", "result": "597.432 mg·min/L and 994.801 mg·min/L and 564.315 mg·min/L and 660.84 mg·min/L"}, {"measurement": "Cmax", "setting": "[2]; [3]", "result": "4.534 µg/mL and 5.953 µg/mL and 2.825 µg/mL and 2.8 µg/mL and 3.414 µg/mL"}, {"measurement": "MRT(0-t)", "setting": "[2]; [3]", "result": "4.64393 h and 8.49298 h and 6.06248 h and 5.82378 h"}, {"measurement": "Tmax", "setting": "[2]; [3]", "result": 30, "unit": "min"}, {"measurement": "t1/2z", "setting": "[2]; [3]", "result": "7.29975 h and 8.1253 h and 14.3264 h and 6.69975 h and 7.17603 h"}, {"measurement": "Detection in rat plasma", "setting": "[2]; IQ group: oral IQ 50 mg/kg", "result": "measured"}, {"measurement": "Plasma concentrations", "setting": "[2]; QG group (oral QG 50 mg/kg), 5 min", "result": "0.0814 µg/mL and 0.1791 µg/mL and 0.1562 µg/mL and 0.4345 µg/mL and 0.2229 µg/mL"}, {"measurement": "Plasma concentrations", "setting": "[2]; QG group (oral QG 50 mg/kg), 120 min", "result": "0.0799 µg/mL and 0.2388 µg/mL and 0.5950 µg/mL and 0.1120 µg/mL and 0.2189 µg/mL"}, {"measurement": "Plasma concentrations", "setting": "[2]; QG group (oral QG 50 mg/kg), 180 min", "result": "0.7950 µg/mL and 1.4327 µg/mL and 2.4032 µg/mL and 0.2061 µg/mL and 1.3248 µg/mL"}, {"measurement": "Plasma concentrations", "setting": "[2]; QG group (oral QG 50 mg/kg), 240 min", "result": "1.3178 µg/mL and 2.6305 µg/mL and 2.4984 µg/mL and 0.6490 µg/mL and 1.6470 µg/mL"}, {"measurement": "Plasma concentrations", "setting": "[2]; QG group (oral QG 50 mg/kg), 360 min", "result": "0.1076 µg/mL and 2.2429 µg/mL and 3.2289 µg/mL and 1.3605 µg/mL and 1.5082 µg/mL"}, {"measurement": "Plasma concentrations", "setting": "[2]; QG group (oral QG 50 mg/kg), 480 min", "result": "0.0874 µg/mL and 0.7211 µg/mL and 1.7586 µg/mL and 0.4951 µg/mL and 0.6594 µg/mL"}, {"measurement": "Plasma concentrations", "setting": "[2]; QG group (oral QG 50 mg/kg), 1440 min", "result": "0.0575 µg/mL and 0.2816 µg/mL and 0.1651 µg/mL and 0.1404 µg/mL and 0.1134 µg/mL"}, {"measurement": "AUC(0-t)", "setting": "[2]; [4]", "result": "268.635 mg·min/L and 1176.18 mg·min/L and 1861.7 mg·min/L and 635.402 mg·min/L and 871.691 mg·min/L"}, {"measurement": "CLz/F", "setting": "[2]; [4]", "result": "0.17 L/min/kg and 0.038 L/min/kg and 0.026 L/min/kg and 0.067 L/min/kg and 0.054 L/min/kg"}, {"measurement": "Cmax", "setting": "[2]; [4]", "result": "1.318 µg/mL and 2.631 µg/mL and 3.229 µg/mL and 1.365 µg/mL and 1.647 µg/mL"}, {"measurement": "MRT(0-t)", "setting": "[2]; [4]", "result": "7.8607 h and 7.11965 h and 7.95713 h and 7.028 h"}, {"measurement": "t1/2z", "setting": "[2]; [4]", "result": "6.12582 h and 5.27942 h and 8.9772 h and 6.00847 h"}, {"measurement": "Detection in rat plasma", "setting": "[2]; QG group: oral QG 50 mg/kg", "result": "could be detected in rat plasma"}, {"measurement": "CL", "setting": "[2]; QG group: oral QG 50 mg/kg, rat plasma, mean ± SD, n = 5", "result": "4.26 ± 3.42", "unit": "L/h/kg"}, {"measurement": "Plasma concentrations", "setting": "[2]; Qr group (oral Qr 50 mg/kg), 5 min", "result": "0.3755 µg/mL and 1.9735 µg/mL and 1.3717 µg/mL and 1.2834 µg/mL"}, {"measurement": "Plasma concentrations", "setting": "[2]; Qr group (oral Qr 50 mg/kg), 120 min", "result": "1.6399 µg/mL and 0.4649 µg/mL and 2.4126 µg/mL and 2.1713 µg/mL and 0.6055 µg/mL"}, {"measurement": "Plasma concentrations", "setting": "[2]; Qr group (oral Qr 50 mg/kg), 180 min", "result": "1.1714 µg/mL and 0.4542 µg/mL and 1.7560 µg/mL and 4.1932 µg/mL and 1.1826 µg/mL"}, {"measurement": "Plasma concentrations", "setting": "[2]; Qr group (oral Qr 50 mg/kg), 240 min", "result": "1.0033 µg/mL and 1.3275 µg/mL and 1.0605 µg/mL and 1.9477 µg/mL and 0.8307 µg/mL"}, {"measurement": "Plasma concentrations", "setting": "[2]; Qr group (oral Qr 50 mg/kg), 360 min", "result": "1.0844 µg/mL and 1.0457 µg/mL and 0.9781 µg/mL and 1.2903 µg/mL and 0.5532 µg/mL"}, {"measurement": "Plasma concentrations", "setting": "[2]; Qr group (oral Qr 50 mg/kg), 480 min", "result": "0.9932 µg/mL and 0.4529 µg/mL and 0.7247 µg/mL and 0.7786 µg/mL and 0.5843 µg/mL"}, {"measurement": "Plasma concentrations", "setting": "[2]; Qr group (oral Qr 50 mg/kg), 1440 min", "result": "0.1552 μg/mL and 0.4031 μg/mL and 0.5308 μg/mL and 0.0000 μg/mL (2×)"}, {"measurement": "AUC(0-t)", "setting": "[2]; [5]", "result": "1269.04 mg·min/L and 1058.23 mg·min/L and 1705.01 mg·min/L and 1261.98 mg·min/L and 455.81 mg·min/L"}, {"measurement": "CLz/F", "setting": "[2]; [5]", "result": "0.037 L/min/kg and 0.034 L/min/kg (2×) and 0.019 L/min/kg and 0.093 L/min/kg"}, {"measurement": "Cmax", "setting": "[2]; [5]", "result": "4.415 µg/mL and 6.9413 µg/mL and 9.165 µg/mL and 9.211 µg/mL and 2.54 µg/mL"}, {"measurement": "MRT(0-t)", "setting": "[2]; [5]", "result": "6.1781 h and 7.68988 h and 6.69422 h and 2.72245 h and 3.04182 h"}, {"measurement": "Tmax", "setting": "[2]; [5]", "result": "30 min and 60 min (2×)"}, {"measurement": "t1/2z", "setting": "[2]; [5]", "result": "7.30138 h and 12.1634 h and 20.1775 h and 3.02307 h and 2.81598 h"}, {"measurement": "Detection in rat plasma", "setting": "[2]; Qr group: oral Qr 50 mg/kg", "result": "detected"}]}]}
